Measured values as given in patent US20050085554A1, “Methods of treating disease through the administration of a manzamine analog or derivative” (priority 2003, published 2005).
≈ marks a conversion by molar mass, not a printed value. Where two headings read alike, the source gives them in different places.

Key:
[1] = test system: Plasmodium falciparum (D6 clone); experiment: Antimalarial activity in vitro, D6 clone; format: cell-based; details: for IC50: Plasmodium falciparum, D6
[2] = test system: P. falciparum (chlorine-resistant W2 clone); experiment: Antimalarial activity in vitro, W2 clone; format: cell-based, Plasmodium falciparum; details: for IC50: Plasmodium falciparum
[3] = test system: Staphylococcus aureus; experiment: Antibacterial activity against S. aureus; format: cell-based; details: for IC50: Staphylococcus aureus
[4] = test system: methicillin-resistant Staphylococcus aureus; experiment: Antibacterial activity against MRS; format: cell-based
[5] = test system: Mycobacterium intracellulare; experiment: Activity against M. intracellulare; format: cell-based
[6] = test system: Mycobacterium tuberculosis H37Rv; experiment: In vitro antimycobacterial activity (Microplate Alamar Blue Assay), MIC; format: cell-based; details: for MIC: Mycobacterium tuberculosis, H37RV
[7] = test system: HIV-1LAV; experiment: Anti-HIV-1 activity in PBM cells; format: cell-based, human immunodeficiency virus (HIV-1); details: T5
Procedure: Anti-HIV-1 activity was determined in PBM cells as described previously. See, Stock solutions (20 or 40 mM) of the compounds were prepared in sterile DMSO and then diluted to the desired concentration in growth medium. Cells were infected with the prototype HIV-1LAV at a multiplicity of infection of 0.1. Details on the infection of cells and assessment of antiviral effects was described previously. See, Schinazi, R. F.; McMillan, A.; Cannon, D.; Mathis, R.; Lloyd, R. M.; Peck, A.; Sommadossi, J.-P.; Clair, M. S.; Wilson, J.; Furman, P. A.; Painter G.; Choi, W.-B.; Liotta, D. C. Antimicrob. Agents Chemother. 1992, 36, 2423-2431 and Schinazi, R. F.; Sommadossi, J.-P.; Saalmann, V.; Cannon, D. L.; Xie, M.-Y.; Hart, G. C.; Smith, G. A.; Hahn, E. F. Antimicrob. Agents Chemother. 1990, 34, 1061-1067.

[8] = test system: Leishmania donovani; experiment: Antileishmanial activity in vitro; format: cell-based; details: T4
[9] = test system: Cryptococcus neoformans; experiment: Antifungal activity against Cryptococcus neoformans; format: cell-based; details: T5, NA = not active
[10] = T4, NA = not active, read-out: Plasmodium falciparum (D6 clone) IC 50
[11] = W2, read-out: P. falciparum (chlorine-resistant W2 clone) IC 50
[12] = Mycobacterium intracellulare, T5, NA = not active, read-out: IC50 M. intracellulare
[13] = T4, read-out: Mycobacterium Tuberculosis (H37Rv) MIC

Structure (SMILES): C[C@@H]1CC[C@H]2[C@@H](C)C(=O)O[C@@H]3O[C@@]4(C)CC[C@@H]1[C@]32OO4 [Artemisinin, reference compound]
- IC50 [1, 10]: 0.01 µg/mL (≈ 0.0354 µM)
- IC50 ([2]; W2, T4, NA = not active, read-out: P. falciparum (chlorine-resistant W2 clone) IC 50): 0.0063 µg/mL (≈ 0.0223 µM)

Structure (SMILES): CCN(CC)CCCC(C)Nc1ccnc2cc(Cl)ccc12 (stereo not shown) [Chloroquine, reference compound]
- IC50 [1, 10]: 0.0155 µg/mL (≈ 0.0485 µM)
- IC50 ([1]; T6): 0.01 µg/mL (≈ 0.0313 µM)
- IC50 [2, 11]: 0.17 µg/mL (≈ 0.531 µM)
- IC50 ([2]; W2, T6, read-out: P. falciparum (W2 clone) IC50): 0.14 µg/mL (≈ 0.438 µM)

Structure (SMILES): O=C(O)c1cn(C2CC2)c2cc(N3CCNCC3)c(F)cc2c1=O [Ciprofloxacin, reference compound]
- IC50 ([3]; T5, NA = not active, read-out: Antibacterial IC50 S. aureus): 0.1 µg/mL (≈ 0.302 µM)
- IC50 ([3]; T6, read-out: Staphylococcus aureus IC50): 0.1 µg/mL (≈ 0.302 µM)
- IC50 ([4]; Staphylococcus aureus, T5, NA = not active, read-out: Antibacterial IC50 MRS): 0.1 µg/mL (≈ 0.302 µM)
- MIC ([4]; Staphylococcus aureus, T6): 0.31 µg/mL (≈ 0.936 µM)
- IC50 ([4]; T6, MRS: methicillin-resistant Staphylococcus aureus, read-out: MRS IC50): 0.1 µg/mL (≈ 0.302 µM)
- IC50 [5, 12]: 0.25 µg/mL (≈ 0.754 µM)
- MIC ([5]; Mycobacterium intracellulare, T6): 0.63 µg/mL (≈ 1.9 µM)
- IC50 ([5]; Mycobacterium intracellulare, T6, read-out: Mycobacterium intracellulare IC50): 0.25 µg/mL (≈ 0.754 µM)

Structure (SMILES): O=CC1=C[C@@]2(O)CC/C=C\CCCCN3CC[C@@H]1[C@]1(CC4/C=C\CCCCN4[C@H]12)C3 (stereo partly shown) [Ircinal A]
- Mycobacterium Tuberculosis (H37Rv) MIC ([6]; T4): 30.2 µg/mL
- EC50 [7]: 6.8 µM
- IC50 M. intracellulare ([5]; T5, NA = not active): 50 µg/mL (≈ 122 µM)

Structure (SMILES): OCC1=C[C@]2(O)CC/C=C\CCCCN3CC[C@@H]1[C@@]1(C[C@H]4/C=C\CCCCN4[C@@H]12)C3 [Ircinol A]
- Mycobacterium Tuberculosis (H37Rv) MIC ([6]; T4): 1.93 µg/mL
- EC50 [7]: 4.3 µM
- Plasmodium falciparum (D6 clone) IC 50 ([1]; T4, NA = not active): 2.4 µg/mL
- P. falciparum (chlorine-resistant W2 clone) IC 50 ([2]; T4, NA = not active): 3.1 µg/mL
- Antibacterial IC50 MRS ([4]; T5, NA = not active): 30 µg/mL
- IC50 M. intracellulare ([5]; T5, NA = not active): 50 µg/mL (≈ 121 µM)

Structure (SMILES): O=C1CCCN2[C@@H](CC1)C[C@]13CN4CCCC/C=C\CC[C@](O)(C=C(c5nccc6c5[nH]c5ccccc56)[C@@H]1CC4)[C@H]23 [Manzamine E]
- Mycobacterium Tuberculosis (H37Rv) MIC ([6]; T4): 3.76 µg/mL
- EC50 [7]: 13.1 µM
- Plasmodium falciparum (D6 clone) IC 50 ([1]; T4, NA = not active): 3.4 µg/mL
- P. falciparum (chlorine-resistant W2 clone) IC 50 ([2]; T4, NA = not active): 4.76 µg/mL
- Leishmania donovani IC 50 [8]: 3.8 µg/mL
- Leishmania donovani IC 90 [8]: 6.8 µg/mL
- IC50 M. intracellulare ([5]; T5, NA = not active): 12.5 µg/mL (≈ 22.1 µM)

Structure (SMILES): O=C1CCCN2[C@@H](CC1)C[C@]13CN4CCCC/C=C\CC[C@](O)(C=C(c5nccc6c5[nH]c5c(O)cccc56)C1CC4)[C@H]23 (stereo partly shown) [Manzamine F]
- Mycobacterium Tuberculosis (H37Rv) MIC ([6]; T4): 2.56 µg/mL
- EC50 [7]: 7.3 µM
- Antifungal IC50 C. neoformans [9]: 6.5 µg/mL
- Plasmodium falciparum (D6 clone) IC 50 ([1]; T4, NA = not active): 0.78 µg/mL
- Plasmodium falciparum (D6 clone) IC 50 ([1]; T8, NA not defined): 0.78 µg/mL
- P. falciparum (chlorine-resistant W2 clone) IC 50 ([2]; T4, NA = not active): 1.7 µg/mL
- P. falciparum (chlorine-resistant W2 clone) IC 50 ([2]; T8): 1.7 µg/mL
- Leishmania donovani IC 50 [8]: 4.2 µg/mL
- Leishmania donovani IC 90 [8]: 7 µg/mL
- IC50 M. intracellulare ([5]; T5, NA = not active): 6.25 µg/mL (≈ 10.8 µM)

Structure (SMILES): O[C@]12C=C(c3nccc4c3[nH]c3ccccc34)[C@@H]3CCN(CCCC/C=C\CC1)C[C@@]31CC/C=C\CCCCN[C@H]12 [Manzamine J]
- Mycobacterium Tuberculosis (H37Rv) MIC ([6]; T4): 1.7 µg/mL
- Plasmodium falciparum (D6 clone) IC 50 ([1]; T4, NA = not active): 1.3 µg/mL
- P. falciparum (chlorine-resistant W2 clone) IC 50 ([2]; T4, NA = not active): 0.75 µg/mL
- Leishmania donovani IC 50 [8]: 25 µg/mL
- Leishmania donovani IC 90 [8]: 45 µg/mL

Structure (SMILES): Oc1ccc2[nH]c3c(C4=C[C@@]5(O)CC/C=C\CCCCN6CC[C@@H]4[C@@]4(C6)C[C@@]67CC[C@@H](CCCN6[C@H]45)O7)nccc3c2c1 [Manzamine X]
- EC50 [7]: 2.3 µM
- Antifungal IC50 C. neoformans [9]: 3.0 µg/mL
- Plasmodium falciparum (D6 clone) IC 50 ([1]; T4, NA = not active): 0.95 µg/mL
- P. falciparum (chlorine-resistant W2 clone) IC 50 ([2]; T4, NA = not active): 2 µg/mL
- Leishmania donovani IC 50 [8]: 5.7 µg/mL
- Leishmania donovani IC 90 [8]: 11 µg/mL
- Antibacterial IC50 S. aureus ([3]; T5, NA = not active): 1.0 µg/mL
- Antibacterial IC50 MRS ([4]; T5, NA = not active): 0.75 µg/mL
- IC50 M. intracellulare ([5]; T5, NA = not active): 1.5 µg/mL (≈ 2.58 µM)

Structure (SMILES): N=C(N)c1ccc(OCCCCCOc2ccc(C(=N)N)cc2)cc1 [Pentamidine, reference compound]
- IC50 ([8]; Leishmania donovani, read-out: Leishmania donovani IC 50): 2.1 µg/mL (≈ 6.17 µM)
- IC90 ([8]; Leishmania donovani, read-out: Leishmania donovani IC 90): 10 µg/mL (≈ 29.4 µM)

Structure (SMILES): CO[C@H]1/C=C/O[C@@]2(C)Oc3c(C)c(O)c4c(O)c(c(/C=N/N5CCN(C)CC5)c(O)c4c3C2=O)NC(=O)/C(C)=C\C=C\[C@H](C)[C@H](O)[C@@H](C)[C@@H](O)[C@@H](C)[C@H](OC(C)=O)[C@@H]1C [Rifampin, reference compound]
- MIC [6, 13]: 0.5 µg/mL (≈ 0.608 µM)
- MIC ([6]; T6, read-out: Mycobacterium tuberculosis MIC): 0.24 µg/mL (≈ 0.292 µM)
- MIC ([6]; rifampin = positive control, read-out: MIC against Mycobacterium tuberculosis (Mtb)): 0.16 µg/mL (≈ 0.194 µM)

Structure (SMILES): O[C@@H]1CCCN2CC[C@@H]1O[C@@]13CC[C@@H](OC[C@]45CN6CCCC/C=C\CC[C@](O)(C=C(c7nccc8c7[nH]c7ccccc78)[C@@H]4CC6)[C@H]25)[C@@H](O)CCN1[C@@H]1[C@]2(CN4CCCC/C=C\CC[C@]1(O)C=C(c1nccc5c1[nH]c1ccccc15)[C@@H]2CC4)C3 [neo-Kauluamine]
- MIC [6, 13]: 2 µg/mL (≈ 1.72 µM)
- IC50 ([9]; Cryptococcus neoformans, read-out: Antifungal IC50 C. neoformans): 3 µg/mL (≈ 2.58 µM)
- IC50 [1, 10]: 1.7 µg/mL (≈ 1.46 µM)
- IC50 [2, 11]: 2.8 µg/mL (≈ 2.41 µM)
- IC50 [5, 12]: 3 µg/mL (≈ 2.58 µM)
